We go through three compounds from publication PMC7927096, “Dipeptides of S-Substituted Dehydrocysteine as Artzyme Building Blocks: Synthesis, Complexing Abilities and Antiproliferative Properties” (International Journal of Molecular Sciences, 2021).

Counter-ions that a name gives are not always drawn.

The test system of data set [1] is ten diverse human cancer cells lines and murine non-tumorigenic cell line (Balb/3T3). In words: Antiproliferative screen, whole cell line panel (statements in words). To be noted: SRB; for activity against resistant versus parent cell lines (in words): 10d: with exception of the line resistant to gemcitabine. The format is cell-based. From the text: (§1) Ten different human cancer cell lines (including drug-resistant sublines) and one non-tumorigenic murine fibroblasts cell line were used to determine antiproliferative activity of the tested compounds. The MDA-MB-231 (breast adenocarcinoma), UM-UC-3 (urinary bladder transitional cell carcinoma), LoVo (colorectal adenocarcinoma), LoVo^Dx (colorectal adenocarcinoma, doxorubicin-resistant) and Balb/3T3 (non-tumorigenic murine fibroblasts) were purchased from the American Type Culture Collection (ATCC; Rockville, USA). The MCF-7 (breast adenocarcinoma) and A549 (lung carcinoma) were purchased from European Collection of Authenticated Cell Cultures (ECACC; Porton Down, UK). The UM-UC-3^CDDP, UM-UC-3^GEM, UM-UC-3^VBL, and UM-UC-3^CDDP/GEM cell lines were established at Hirszfeld Institute of Immunology and Experimental Therapy of the Polish Academy of Sciences (HIIET, PAS, Wroclaw, Poland) by the continuous exposure to the increasing concentrations of corresponding cytostatics.
(§2) The Balb/3T3 and UM-UC-3 were cultured in Dulbecco’s Modified Eagle Medium (DMEM; Life Technologies, UK) supplemented with 10% (v/v) fetal bovine serum (FBS; GE Healthcare HyClone, Logan, USA) and 2 mM L-glutamine (Sigma-Aldrich, Poznań, Poland). The UM-UC-3^CDDP, UM-UC-3^GEM, UM-UC-^3VBL, and UM-UC-3^CDDP/GEM culture media were additionally supplemented with appropriate cytostatics: 2.5 µg/mL cisplatin (Accord, Warsaw, Poland) for UM-UC-3^CDDP, 500 nM gemcitabine (Sigma-Aldrich, Poznań, Poland) for UM-UC-3^GEM, 5 nM vinblastine (Sigma-Aldrich, Poznań, Poland) for UM-UC-3VBL, 2.5 µg/mL cisplatin and 500 nM gemcitabine for UM-UC-3^CDDP/GEM. The LoVo cell line was cultured in F-12K Nutrient Mixture (F-12K; Corning, Corning, USA), supplemented with 10% (v/v) FBS. LoVo^Dx culture medium was additionally supplemented with doxorubicin 100 ng/mL (Accord, Warsaw, Poland). The MCF-7 cell line was cultured in Eagle’s medium (HIIET, PAS, Wroclaw, Poland), supplemented with 10% (v/v) FBS (Sigma-Aldrich, Poznań, Poland), 2 mM L-glutamine, MEM non-essential amino acid solution 1% (v/v) (Sigma-Aldrich, Poznań, Poland), insulin 8 µg/mL (Sigma-Aldrich, Poznań, Poland). The MDA-MB-231 cell line was cultured in RPMI 1640 (HIIET, PAS, Wroclaw, Poland), supplemented with 10% (v/v) FBS (Sigma-Aldrich, Poznań, Poland) and 2 mM L-glutamine. The A 549 cell line was cultured in OptiMEM (HIIET, PAS, Wroclaw, Poland), supplemented with 5% (v/v) FBS (GE Healthcare HyClone, Logan, USA) and 2 mM L-glutamine. All culture media were supplemented with antibiotics—100 μg/mL streptomycin (Polfa Tarchomin, Warsaw, Poland) and 100 U/mL penicillin (Sigma-Aldrich, Poznań, Poland).
(§3) All cell lines were cultured in a humidified atmosphere at 37 °C with 5% (v/v) CO2 and passaged twice a week using EDTA-Trypsin solution (pH 8; HIIET, Wroclaw, Poland) as a detachment agent.
(§4) All compounds, for antiproliferative activity assessment, were stored at […] as 50 mM solutions in dimethyl sulfoxide (DMSO; Avantor Performance Materials, Gliwice, Poland).
(§5) The cells were seeded on 384-well plates (Greiner Bio One, Kremsmünster, Austria) at 1 × 10^3 cells/well density for A 549, UM-UC-3, UM-UC-3^CDDP, UM-UC-3^GEM, UM-UC-3^CVBL and UM-UC-3^CDDP/GEM cell lines. Other cell lines were seeded at 2 × 10^3 cells/well. After overnight incubation, compounds were applied at eight concentrations (ranging from 100 µM to 0.03 µM). After 72 h incubation, the sulforhodamine B (SRB) assay based on Skehan et al. was carried out with slight modifications. In brief, 50 µL of the medium was replaced with 30 µL/well of 25% (w/v) trichloroacetic acid (Avantor Performance Materials, Gliwice, Poland). After 1 h incubation at room temperature, plates were washed three times with tap water, and 20 µL of 0.1% (w/v) solution of sulforhodamine B (Sigma-Aldrich, Poznan, Poland) in 1% (v/v) acetic acid (Avantor Performance Materials, Gliwice, Poland) was added to each well. […]

The subject of data set [2] is Balb/3T3 (non-tumorigenic murine fibroblasts). In words: Antiproliferative activity, sulforhodamine B assay. Type of data set: cell-based. To be noted: Mus musculus, BALB/3T3; SRB, 72 h incubation; non-tumorigenic line; read-out: IC50 ± SD, Balb/3T3.
From the text: as §1, §2, §3, §4, §5

The subject of data set [3] is MCF-7 (breast adenocarcinoma). In words: Antiproliferative activity, sulforhodamine B assay. Type of data set: cell-based, human. To be noted: Homo sapiens, MCF7; SRB, 72 h incubation; read-out: IC50 ± SD, MCF-7.
From the text: as §1, §2, §3, §4, §5

For data set [4], the system named is A549 (lung carcinoma). Kind of data set: Antiproliferative activity, sulforhodamine B assay. To be noted: Homo sapiens, A549; SRB, 72 h incubation; read-out: IC50 ± SD, A-549. Type of data set: cell-based, human.
From the text: as §1, §2, §3, §4, §5
A general note: In SRB staining, fixed cells bind dye roughly in proportion to their protein.

Data set [5] deals with UM-UC-3^CDDP (cisplatin-resistant). In words: Antiproliferative activity, sulforhodamine B assay. Type of data set: cell-based, human. To be noted: Homo sapiens, SRB, 72 h incubation, read-out: IC50 ± SD, UM-UC-3^CDDP.
From the text: as §1, §2, §3, §4, §5

Data set [6] relates to UM-UC-3 (urinary bladder transitional cell carcinoma). In words: Antiproliferative activity, sulforhodamine B assay. The format is cell-based, human. To be noted: Homo sapiens, UMUC3; SRB, 72 h incubation; read-out: IC50 ± SD, UM-UC-3.
From the text: as §1, §2, §3, §4, §5

Data set [7] concerns MDA-MB-231 (breast adenocarcinoma). Kind of data set: Antiproliferative activity, sulforhodamine B assay. Type of data set: cell-based, human. To be noted: Homo sapiens, MDA-MB-231; SRB, 72 h incubation; read-out: IC50 ± SD, MDA-MB-231.
From the text: as §1, §2, §3, §4, §5

Data set [8] concerns LoVo (colorectal adenocarcinoma). In words: Antiproliferative activity, sulforhodamine B assay. Type of data set: cell-based, human. To be noted: Homo sapiens, LoVo; SRB, 72 h incubation; read-out: IC50 ± SD, LoVo.
From the text: as §1, §2, §3, §4, §5

The test system of data set [9] is LoVo^DX (colorectal adenocarcinoma, doxorubicin-resistant). Kind of data set: Antiproliferative activity, sulforhodamine B assay. The format is cell-based, human. To be noted: Homo sapiens, LoVo/DX, SRB, 72 h incubation, read-out: IC50 ± SD, LoVo^DX.
From the text: as §1, §2, §3, §4, §5

Data set [10] relates to UM-UC-3^GEM (gemcitabine-resistant). In words: Antiproliferative activity, sulforhodamine B assay. To be noted: Homo sapiens, SRB, 72 h incubation, read-out: IC50 ± SD, UM-UC-3^GEM. The format is cell-based, human.
From the text: as §1, §2, §3, §4, §5

In data set [11] the test system is UM-UC-3^CDDP/GEM (resistant to cisplatin and gemcitabine). Kind of data set: Antiproliferative activity, sulforhodamine B assay. The format is cell-based, human. To be noted: Homo sapiens, SRB, 72 h incubation, read-out: IC50 ± SD, UM-UC-3^CDDP/GEM.
From the text: as §1, §2, §3, §4, §5

Data set [12] relates to UM-UC-3^VBL (vinblastine-resistant). Kind of data set: Antiproliferative activity, sulforhodamine B assay. The format is cell-based, human. To be noted: Homo sapiens, SRB, 72 h incubation, read-out: IC50 ± SD, UM-UC-3^VBL.
From the text: as §1, §2, §3, §4, §5

On the set-up of data set [13]: method as in PMID 12031802. To be noted: Cu(II) complex; cited from earlier work.

Consider `COC(=O)/C(=C/Sc1nc2ccccc2s1)NC(=O)[C@H](Cc1ccccc1)NC(=O)OC(C)(C)C` [Compound 7d, Boc-Phe-ΔCys(S-benzothiazole)-OMe], for which the “antiproliferative activity (in words)” value in [1] (across cell lines) was “most potent representatives”. The “activity against resistant versus parent cell lines (in words)” value in data set [1] was “equipotential towards both resistant and parent cell lines”. The IC50 in [2] turned out to be 3.1 ± 0.6 µM; in [3], 6.8 ± 0.5 µM; in data set [4], 6.6 ± 1.4 µM; in [5], 11.2 ± 1.5 µM; in data set [6], 6.7 ± 1.4 µM; in [7], 10.8 ± 0.4 µM. For the same compound, the IC50 in data set [8] turned out to be 9.6 ± 0.9 µM; in data set [9] it was 8.6 ± 0.9 µM; in data set [10], 8 ± 2.3 µM; in data set [11] it was 9.1 ± 1.2 µM; in data set [12] it was 6.3 ± 1 µM.
Consider `COC(=O)/C(=C/Sc1nc2ccccc2s1)NC(=O)[C@@H](N)Cc1ccccc1` [Compound 10d, HCl Phe-ΔCys(S-benzothiazole)-OMe], for which the “activity against resistant versus parent cell lines (in words)” value in data set [1] is “more effective against resistant cell lines”. For the same compound, the IC50 in data set [2] came out at 42.2 ± 9.3 µM; in [3], 22 ± 4.5 µM; in data set [4], 14 ± 5.6 µM; in [5] it was 16.6 ± 2.5 µM; in data set [6] it was 30.5 ± 3.7 µM; in data set [7], 24.4 ± 3 µM. The IC50 amounted to 70.3 ± 21.5 µM in data set [8]; 33.1 ± 9 µM in [9]; 67.8 ± 9.6 µM in [10]; 25.3 ± 8 µM in data set [11]; 9.4 ± 2.2 µM in [12].
Regarding `NCC(=O)N/C(=C\c1ccccc1)C(=O)O` [Gly(Z)ΔPhe], in data set [13], the “logβ of the analogous species with {N-NH2, Namide} binding mode” value is reported as 2.19.
